According to patent US8865894B2, “Oxazolidin-2-one compounds and uses thereof” (Novartis AG, priority 2012, dated 2014):

Key:
Format in all cases: cell-based
[1] = target: T1, mTOR (Mus musculus, UniProt Q9JLN9); assay: Cellular assay mTOR (phospho-T389 S6K1 SureFire in TSC1-/- MEF cells); conditions: TSC1-/- MEF cells; read-out: mTOR S6K(T389)_TSC1ko/ IC50
T1 construct: endogenous in cells; host or cells: TSC1-/- MEF (mouse embryo fibroblasts)
Source text: A cell based assay (384-well format) was developed for determination of compound effects on cellular mTOR kinase activity in MEF (mouse embryo fibroblasts) cells derived from mice lacking TSC1 (Tuberosclerosis Complex1) a potent suppressor of mTOR kinase activity. Due to lack of TSC1 the mTOR kinase is constitutively activated resulting in permanent phosphorylation of Thr 389 of S6 kinase 1 (S6K1) which is one of the downstream targets of mTOR.
Using a SureFire Kit that enables to determine the phosphorylation of Thr389 on the S6K1 an assay was developed, validated and implemented in the Alpha-Screen format that allows the quantitative determination of phospho-T389 of S6K1 in cell lysates. […] These were in agreement with those values obtained with the biochemical mTOR ATP-binding assay enabling a quantitative comparison of potency of mTOR inhibitors.
TSC1−/− MEFs cells (Kwiatkowski, D. J., Zhang, H., Bandura, J. L., Heiberger, K. M., Glogauer, M., el-Hashemite, N., and Onda, H. (2002) Hum. Mol. Genet. 11, 525-534) were cultured in DMEM high glucose medium supplemented with 10% FBS (Invitrogen), 2 mM Glutamine and 1% (w/v) Penicillin/Streptomycin at 37° C., 5% CO2.
The SureFire kit for determination of P70S6kinase phosphorylation was purchased from Perkin Elmer (p70S6K p-T389, #TGR70S50K) and the assay was performed according to the instructions of the supplier and according to the generic method for SureFire assays. Shortly, 5 μL cell lysate per well were transferred to 384-well white proxy-plates (for luminescent readout) and mixed with […] and […] (final volume: 12 μL). After 3 h incubation in the dark at RT luminescence was read with the Envision Reader (Perkin Elmer). Untreated cells were used as control (high control) and cells treated with 3 μM BEZ235 were used as low control. The assay window between the signals obtained for the high and the low controls were defined as 100% and compound effects were expressed as percent inhibition. IC50 values were calculated from the dose response curves by graphical extrapolation.

[2] = tested on: A2058 cells; assay: Cell cycle G2/M arrest Cytospin assay to detect tubulin binding (off-target); design: key: 0=no condensed DNA observed (indicating no off target activity); 1=(indicating weak off target activity); 2=(indicating medium off target activity); 3=large amount of condensed DNA observed (indicating strong off-target activity); conditions: 5 μM test item, 24 hours
Description: The off-target effect (evidence of tubulin binding) was measured as follows.
Cell cycle G2/M arrest Cytospin assay to detect tubulin binding (off-target) binding activities of MAPP derivatives: 5×10^5 cells A2058 cells were plated in 6-well cluster, with 2 mL of DMEM (high Glucose containing 1% sodium pyruvate, 1% glutamin and 10% FCS). 18 hours later, the test items were added at a concentration of 5 μM (spiking 1 μL of a 10 mM solution of the test item). 24 hours later, the cells were trypsinized and transferred into a 15 mL conical tube. Cells are then pelleted by centrifugation, and resuspended with PBS/0 (containing 10% FCS). Cells are counted with a CASY counter, and each samples equilibrated to 1×10^6 cells/mL. […] The staining was visually assessed for the presence of condensed DNA and given a score where 0=no condensed DNA observed (indicating no off target activity), 1=(indicating weak off target activity), 2=(indicating medium off target activity), 3=large amount of condensed DNA observed (indicating strong off-target activity).

[3] = target: T2, human PI3Kalpha p110 catalytic subunit (Rat-1 pBABEpuro Myr-HA-hp110alpha) (Homo sapiens, UniProt P42336); assay: Cellular assay PI3Kalpha (p-Akt(S473) SureFire, Rat-1_PI3Kalpha cells); conditions: 1 h compound treatment, read-out: Rat1-PI3Ka/ IC50
T2 construct: Myr (myristoylation signal) (N); HA (N); expressed in transfected cells; host or cells: Rat-1
Source text: (§1) AlphaScreen (Amplified Luminescent Proximity Homogeneous Assay, ALPHA, Perkin Elmer) is a non-radioactive bead-based proximity assay technology to study biomolecular interactions in a homogenous microtiter plate format. The brand name SureFire denotes AlphaScreen assays that are adapted to quantify the phosphorylation of endogenous cellular proteins in cell lysates, by using matched antibody pairs, which consist of an anti-phospho-kinase and an anti-kinase antibody. The assay allows characterization of kinase signaling in cells as well as measurement of kinase inhibitor effects. The AlphaScreen technology provides several advantages over standard assay techniques such as ELISA, as it avoids time-consuming washing procedures and reduces plate handling. Furthermore, it is miniaturizable at least to a 384-well format and provides sensitivity down to the femtomolar range, dependent on the affinity of the antibodies included in the individual AlphaScreen SureFire assay kit. High sensitivity is reached by an intrinsic amplification mechanism, which involves production of singlet oxygen molecules. SureFire assay kits are commercially available for specific targets and include pairs of validated antibodies (PerkinElmer). This report describes common procedures applied for AlphaScreen SureFire assays and respective semi-automated steps for routine kinase inhibitor profiling in cell-based assays.
(§2) The Rat-1 cell lines stably overexpressing activated PI3K class I isoforms Rat-1 pBABEpuro Myr-HA-hp110 delta (Rat-1_PI3Kdelta) and Rat-1 pBABEpuro Myr-HA-hp110alpha (Rat-1_PI3Kalpha) and Rat-1 pBABEpuro Myr-HA-hp110 beta (Rat-1_PI3beta) were prepared as described (Maira S M, Stauffer F, Brueggen J, Furet P, Schnell C, Fritsch C, Brachmann S, Chène P, de Pover A, Schoemaker K, Fabbro D, Gabriel D, Simonen M, Murphy L, Finan P, Sellers W, García-Echeverría C (2008), Mol Cancer Ther. 7:1851-63 and Maira S M, Pecchi S, Brueggen J, Huh K, Schnell C, Fritsch C, Nagel T, Wiesmann M, Brachmann S, Dorsch M, Chène P, Schoemaker K, De Pover A, Menezes D, Fabbro D, Sellers W, García-Echeverría C, Voliva C F (2011), Mol. Cancer Ther., accepted). All cell lines were cultivated in complete growth medium (DMEM high glucose, 10% (v/v) fetal bovine serum, 1% (v/v) MEM NEAA, 10 mM HEPES, 2 mM L-glutamine, puromycin (10 μg/mL for Rat-1_PI3Kdelta and Rat-1_PI3Kalpha, 4 ug/mL for Rat-1_PI3beta), 1% (v/v) Pen/Strep) to 90% confluency at 37° C./5% CO2/90% humidity in a humidified CO2 incubator and were split twice a week.
(§3) The following materials were used for p-AKT(S473) detection in Rat-1 cell lysates: Dulbecco's modified Eagle's medium (DMEM) high glucose (Gibco Invitrogen, Basel, Switzerland, Cat. No. 41965), Heat Inactivated Fetal Bovine Serum, Qualified (HI FBS; Gibco Invitrogen, Basel, Switzerland, Lot. No. 16140), MEM non essential amino acids (NEAA; Gibco Invitrogen, Basel, Switzerland, Cat. No. 11140), HEPES (Gibco Invitrogen, Basel, Switzerland, Cat. No. 15630), Penicillin/Streptomycin (Pen/Strep, 100×; Gibco Invitrogen, Basel, Switzerland, Cat. No. 15140-122), L-Glutamine (Gibco Invitrogen, Basel, Switzerland, Cat. No. 25030), Puromycin (Sigma Aldrich, Buchs, Switzerland, Cat. No. P9620), DMSO (MERCK, Dietikon, Switzerland, Cat. No. 8.02912.2500), H2O, MilliQ-H2O unless otherwise stated (MILLIPORE QGARDOOR1, Millipore, Zug, Switzerland), Bovine serum albumine (BSA; Sigma Aldrich, Buchs, Switzerland Cat. No. A8412), SureFire p-Akt 1/2 (Ser473) Assay Kit (PerkinElmer, Schwerzenbach, Switzerland, Cat. No. TGRAS50K).
(§4) The p-Akt(S473) SureFire assay measures the phosphorylation of endogenous cellular Akt 1/2 at Ser473 in cell lysates. Using Rat-1 cells stably expressing myr-HA-tagged versions of the human PI3Kdelta, PI3Kalpha, or PI3Kbeta p110 catalytic subunit isoforms, the assay was developed as a two-plate protocol in a 384-well format.

[4] = target: T3, human PI3Kbeta p110 catalytic subunit (Rat-1 pBABEpuro Myr-HA-hp110 beta) (Homo sapiens, UniProt P42338); assay: Cellular assay PI3Kbeta (p-Akt(S473) SureFire, Rat-1_PI3beta cells); conditions: p-Akt(S473), 1 h compound treatment; read-out: Rat1-PI3Kb/ IC50
T3 construct: Myr (myristoylation signal) (N); HA (N); expressed in transfected cells; host or cells: Rat-1
Source text: as §1, §2, §3, §4

[5] = target: T4, human PI3Kdelta p110 catalytic subunit (Rat-1 pBABEpuro Myr-HA-hp110 delta) (Homo sapiens, UniProt O00329); assay: Cellular assay PI3Kdelta (p-Akt(S473) SureFire, Rat-1_PI3Kdelta cells); conditions: 1 h compound treatment, read-out: Rat1-PI3Kd/ IC50
T4 construct: Myr (myristoylation signal) (N); HA (N); expressed in transfected cells; host or cells: Rat-1
Source text: as §1, §2, §3, §4

T3 sequence (P42338 whole entry): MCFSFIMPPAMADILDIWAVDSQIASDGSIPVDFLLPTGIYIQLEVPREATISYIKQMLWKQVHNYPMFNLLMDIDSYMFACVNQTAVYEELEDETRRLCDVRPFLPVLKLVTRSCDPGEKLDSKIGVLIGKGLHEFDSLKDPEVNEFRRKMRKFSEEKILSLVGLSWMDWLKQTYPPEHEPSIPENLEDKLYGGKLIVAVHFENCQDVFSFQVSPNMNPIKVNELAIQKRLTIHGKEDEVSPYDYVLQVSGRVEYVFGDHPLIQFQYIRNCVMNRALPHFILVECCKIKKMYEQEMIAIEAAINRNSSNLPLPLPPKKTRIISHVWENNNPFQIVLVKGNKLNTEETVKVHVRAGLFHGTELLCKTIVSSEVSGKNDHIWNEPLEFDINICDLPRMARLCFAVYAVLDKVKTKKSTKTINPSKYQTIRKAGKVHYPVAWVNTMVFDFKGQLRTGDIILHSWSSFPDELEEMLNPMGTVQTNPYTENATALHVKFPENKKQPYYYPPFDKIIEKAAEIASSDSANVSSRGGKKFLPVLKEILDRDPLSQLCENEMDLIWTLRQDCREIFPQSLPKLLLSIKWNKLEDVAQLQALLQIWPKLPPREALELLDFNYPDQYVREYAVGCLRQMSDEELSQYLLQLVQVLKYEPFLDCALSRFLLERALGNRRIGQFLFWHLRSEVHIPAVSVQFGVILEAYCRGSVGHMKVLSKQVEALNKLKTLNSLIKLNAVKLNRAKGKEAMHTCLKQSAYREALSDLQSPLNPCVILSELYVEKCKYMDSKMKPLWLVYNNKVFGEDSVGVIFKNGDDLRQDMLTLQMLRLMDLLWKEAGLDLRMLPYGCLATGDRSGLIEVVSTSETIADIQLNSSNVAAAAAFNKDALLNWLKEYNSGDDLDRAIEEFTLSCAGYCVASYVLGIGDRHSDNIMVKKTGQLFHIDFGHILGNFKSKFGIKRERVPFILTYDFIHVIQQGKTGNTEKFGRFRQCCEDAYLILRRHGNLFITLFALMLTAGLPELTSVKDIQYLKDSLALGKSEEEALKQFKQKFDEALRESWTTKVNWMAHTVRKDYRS
T3 sequence (Q63787 whole entry partner): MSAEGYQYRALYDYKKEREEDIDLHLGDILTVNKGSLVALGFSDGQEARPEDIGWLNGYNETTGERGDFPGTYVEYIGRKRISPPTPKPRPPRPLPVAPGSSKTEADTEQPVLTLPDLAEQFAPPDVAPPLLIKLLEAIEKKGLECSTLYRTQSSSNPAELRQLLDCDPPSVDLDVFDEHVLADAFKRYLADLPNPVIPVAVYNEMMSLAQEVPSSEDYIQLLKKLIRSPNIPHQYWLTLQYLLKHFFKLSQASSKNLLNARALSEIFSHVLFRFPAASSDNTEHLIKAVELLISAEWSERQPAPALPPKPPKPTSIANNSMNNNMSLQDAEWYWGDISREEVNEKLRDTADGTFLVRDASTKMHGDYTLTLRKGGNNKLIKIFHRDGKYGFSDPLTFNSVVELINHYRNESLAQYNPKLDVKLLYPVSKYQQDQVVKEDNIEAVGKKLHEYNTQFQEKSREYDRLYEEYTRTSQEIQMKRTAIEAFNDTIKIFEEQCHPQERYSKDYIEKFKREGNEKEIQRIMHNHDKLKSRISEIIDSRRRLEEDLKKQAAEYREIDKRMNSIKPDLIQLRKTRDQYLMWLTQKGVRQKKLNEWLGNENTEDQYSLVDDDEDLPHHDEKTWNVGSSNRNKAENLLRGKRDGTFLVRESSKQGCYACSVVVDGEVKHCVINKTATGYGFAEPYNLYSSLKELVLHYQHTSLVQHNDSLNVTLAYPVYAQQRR
T2 sequence (P42336 whole entry): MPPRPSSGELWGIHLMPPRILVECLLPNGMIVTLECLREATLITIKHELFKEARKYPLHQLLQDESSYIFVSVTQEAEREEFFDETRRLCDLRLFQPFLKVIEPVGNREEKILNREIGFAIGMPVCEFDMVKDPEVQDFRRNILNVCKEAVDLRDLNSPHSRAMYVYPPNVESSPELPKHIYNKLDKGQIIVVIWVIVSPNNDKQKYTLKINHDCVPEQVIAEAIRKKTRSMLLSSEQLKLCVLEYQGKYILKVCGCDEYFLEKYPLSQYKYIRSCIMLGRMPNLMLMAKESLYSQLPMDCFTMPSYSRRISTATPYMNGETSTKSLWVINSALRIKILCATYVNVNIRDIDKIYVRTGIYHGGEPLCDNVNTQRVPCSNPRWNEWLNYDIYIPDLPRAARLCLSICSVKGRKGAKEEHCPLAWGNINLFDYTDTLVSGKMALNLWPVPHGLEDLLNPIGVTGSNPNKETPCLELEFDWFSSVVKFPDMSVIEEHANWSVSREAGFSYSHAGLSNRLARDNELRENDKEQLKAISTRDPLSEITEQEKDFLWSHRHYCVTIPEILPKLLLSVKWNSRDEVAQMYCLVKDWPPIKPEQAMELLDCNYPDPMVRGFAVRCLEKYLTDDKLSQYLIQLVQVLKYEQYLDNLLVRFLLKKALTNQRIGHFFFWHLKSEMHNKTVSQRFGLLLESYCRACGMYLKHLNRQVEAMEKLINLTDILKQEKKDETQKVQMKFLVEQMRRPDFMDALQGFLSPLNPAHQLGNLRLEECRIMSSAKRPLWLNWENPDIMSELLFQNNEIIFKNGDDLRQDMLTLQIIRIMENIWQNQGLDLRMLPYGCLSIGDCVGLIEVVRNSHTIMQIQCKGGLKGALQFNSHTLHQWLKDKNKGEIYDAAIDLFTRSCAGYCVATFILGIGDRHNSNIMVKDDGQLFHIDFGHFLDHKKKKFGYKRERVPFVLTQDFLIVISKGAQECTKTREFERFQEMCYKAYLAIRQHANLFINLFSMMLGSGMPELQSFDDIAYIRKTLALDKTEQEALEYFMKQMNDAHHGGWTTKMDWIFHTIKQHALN
T2 sequence (Q63787 whole entry partner): as the sequence (Q63787 whole entry partner) above
T4 sequence (O00329 whole entry): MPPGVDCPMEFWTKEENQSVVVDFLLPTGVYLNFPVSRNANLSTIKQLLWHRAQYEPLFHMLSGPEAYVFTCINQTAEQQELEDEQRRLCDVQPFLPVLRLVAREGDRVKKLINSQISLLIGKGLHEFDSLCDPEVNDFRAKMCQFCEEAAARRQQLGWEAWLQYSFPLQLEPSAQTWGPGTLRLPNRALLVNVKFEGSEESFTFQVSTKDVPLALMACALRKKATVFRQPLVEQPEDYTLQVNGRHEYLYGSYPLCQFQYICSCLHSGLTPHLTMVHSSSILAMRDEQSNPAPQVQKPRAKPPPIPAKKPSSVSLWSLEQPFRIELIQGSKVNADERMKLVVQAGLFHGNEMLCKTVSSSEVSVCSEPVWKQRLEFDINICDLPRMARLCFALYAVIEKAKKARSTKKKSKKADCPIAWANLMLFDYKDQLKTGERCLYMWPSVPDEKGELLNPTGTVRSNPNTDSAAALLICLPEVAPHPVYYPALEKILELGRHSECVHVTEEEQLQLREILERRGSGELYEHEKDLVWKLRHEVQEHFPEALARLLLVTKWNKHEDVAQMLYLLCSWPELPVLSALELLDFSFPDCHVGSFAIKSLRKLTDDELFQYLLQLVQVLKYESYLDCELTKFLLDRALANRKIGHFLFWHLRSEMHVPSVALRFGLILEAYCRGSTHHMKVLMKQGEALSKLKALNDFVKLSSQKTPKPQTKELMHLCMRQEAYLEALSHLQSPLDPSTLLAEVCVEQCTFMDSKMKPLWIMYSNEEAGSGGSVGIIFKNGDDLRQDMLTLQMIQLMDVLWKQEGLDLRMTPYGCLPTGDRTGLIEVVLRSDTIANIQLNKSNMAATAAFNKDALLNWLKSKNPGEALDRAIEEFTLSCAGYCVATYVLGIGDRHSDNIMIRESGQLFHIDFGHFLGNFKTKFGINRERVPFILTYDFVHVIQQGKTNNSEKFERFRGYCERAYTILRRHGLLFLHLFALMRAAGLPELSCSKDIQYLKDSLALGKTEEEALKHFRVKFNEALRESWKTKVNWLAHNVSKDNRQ
T4 sequence (Q63787 whole entry partner): as the sequence (Q63787 whole entry partner) above

SMILES	IC50 [1]	Score (condensed DNA, G2/M arrest; off-target tubulin binding) [2]	IC50 [3]	IC50 [4]	IC50 [5]
Nc1cc(C(F)(F)F)c(-c2cc(N3CCOCC3)nc(N3CCOCC3)n2)cn1 [WO2007/084786 Example 10, reference compound]	0.602 µM	3			
CC1(CO)COC(=O)N1c1cc(-c2cnc(N)nc2C(F)(F)F)nc(N2CCOCC2)n1 (single isomer, unassigned) [Example 3A, 3-(2′-amino-2-morpholino-4′-(trifluoromethyl)-4,5′-bipyrimidin-6-yl)-4-(hydroxymethyl)-4-methyloxazolidin-2-one]	1.57 µM	0	0.176 µM	0.093 µM	0.059 µM
Nc1ncc(-c2cc(N3C(=O)OC[C@@H]3CO)nc(N3CCOCC3)n2)c(C(F)(F)F)n1 [Example 7, (S)-3-(2′-Amino-2-morpholin-4-yl-4′-trifluoromethyl-[4,5′]bipyrimidinyl-6-yl)-4-hydroxymethyl-oxazolidin-2-one]	1.23 µM		0.12 µM	0.132 µM	0.07 µM
CC1(CO)COC(=O)N1c1cc(-c2cnc(N)nc2C(F)(F)F)nc(N2CCOCC2)n1 (single isomer, unassigned) [Example 3B, 3-(2′-amino-2-morpholino-4′-(trifluoromethyl)-4,5′-bipyrimidin-6-yl)-4-(hydroxymethyl)-4-methyloxazolidin-2-one]	1.11 µM	0	0.215 µM	0.331 µM	0.172 µM
